According to patent publication US6664231B1, “Anti-fungal peptides” (priority 1993, dated 2003):

Experiments:
[1] = test system: C. albicans designated CA-1, Strain SLU-1; settings: designated CA-1, Strain SLU-1, 18 h
Description: In each broth assay screening procedure, a colony of C. albicans designated CA-1, Strain SLU-1 that was received from the laboratories of G. Matuschak and A. Lechner, St. Louis University Hospital, St. Louis, Mo., where the strain was maintained, was inoculated into a tube containing 5 mL Sabouraud Dextrose broth (2% dextrose, 1% neopeptone) and incubated overnight at 37° C. with shaking. The overnight culture was diluted 1:50 into 5 mL of fresh broth and incubated for 3 hours at 37° C. Organisms were pelleted by centrifugation in a Beckman J-6M centrifuge for 5 minutes at 3000 rpm (1500×g) and the pellets were resuspended in 5 mL phosphate buffered saline (PBS) and the optical density at 570 nm was determined. On the basis of the determination that one OD unit equals 3×10^7 colony forming units/mL, yeast cells were diluted to 2×10^6 cells/mL in Sabouraud Dextrose broth.
Domain III peptides derived from or based on BPI to be screened were originally constituted in Dulbecco's-PBS, were diluted to 100 μg/mL in broth and were serially diluted 2-fold into wells of a 96 well sterile, flat bottom, non-pyrogenic tissue culture plate (Costar, Cambridge, Mass.). All assays were performed in triplicate. 2×10^5 organisms were added at 100 μl per well; final volume was 200 μL/well; the plate was incubated on a shaker at 37° C. for 18 hours; and the optical densities for each well were read at 590 nm. […] The broth assay data may be set out in terms of minimum inhibitory concentration (MIC), i.e. the lowest concentration required to reduce the optical density at 590 nm to below 0.1.

[2] = test system: Crytococcus Neoformans 13690; assay type: cell-based, Cryptococcus neoformans
Description: In additional experiments, a fluorescence-activated cell sorter (FACS) based assay was developed to test the fungicidal activity of the peptides. […] Difco) agar. Several colonies were picked from the agar plate and inoculated into 5 mL of Sabouraud's Dextrose media in a sterile 10 mL polypropylene tube. The fungal cultures were incubated for about 18 hours at 30° C. […] The culture were centrifuged at 3000 rpm for 5 minutes (Sorvall RT 6000B). After centrifugation, the supernatant was decanted leaving the fungal pellets in the centrifuge tubes. The pellets were resuspended in 15 mL of SDB. Both suspensions were combined into one tube and mixed to generate a stock culture. […] After determining the concentration of the stock, appropriate dilutions were made with Sabouraud's Dextrose media to obtain 100 mL of 1×10^6 cell/mL. […] After the 1 hour incubation, all the tubes were centrifuged at 3000 rpm for 5 minutes. […] Louis, Mo.) in Dulbecco's PBS (DPBS, GIBCO, Grand Island, N.Y.) except the autofluorescence control, which was resuspended in DPBS alone. […] The settings were adjusted appropriately to the following approximate parameters: Cells were analyzed (10,000 cells/tube) and their respective fluorescence determined. […] The population of dead (i.e., propidium iodide stained) fungal cells was determined by a fluorescence threshold between the negative control and positive control.

[3] = test system: endotoxin (E. coli O111:B4); assay: Mouse experimental endotoxemia model; assay type: in vivo; settings: endotoxin 20 mg/kg, 7 days
Description: Domain III derived peptides are also tested for LPS neutralizing efficacy in an in vivo mouse experimental endotoxemia model. […] This was followed by a second intravenous injection of the peptide to be tested. Injections of saline were used in negative control mice. […] The efficacy of the peptides was measured by a decrease in endotoxemia-associated mortality in peptide-injected mice as compared with control mice. […] No animals survived in the saline control group.

[4] = assay type: physicochemical; settings: 37° C., at 50 days, acetate buffered saline
Description: The lyophilized peptide was dissolved to a concentration of 1 mg/mL in three different buffers. The three formulation buffers used were (a) 10 mM solution acetate, 150 mM sodium chloride pH 4, (b) 10 mM sodium acetate, 150 mM sodium chloride pH 5 and (c) 10 mM sodium acetate, 150 mM sodium chloride pH 6. The formulated peptide samples were incubated at 4° C. and 37C. At each time point, samples were withdrawn from each vial and assayed by C18 reverse phase BPLC, absorbance at 280 nm, and SDS-PAGE. The study was conducted for 50 days.
A 0.46×25 cm Vydac C18 column (cat no. 218TP54) was used on a Shimadzu HPLC system. The column was run in binary gradient mobile phases: A=Water+0.05% TFA, B=acetonitrile+0.05% TFA. […]
Samples were analyzed by SDS polyacrylamide gel electrophoresis, run on Novex 10-20% tricine precast gels (Novex, La Jolla, Calif., EC6625). […] In addition, samples were analyzed photometrically. For this, samples withdrawn at each time point were diluted 6-fold with Millipore water and absorbance was measured at 280 nm and scanning from 210 nm to 340 nm using a Shimadzu UV 160 spectrophotometer. AU samples were filtered prior to absorbance measurement(s).
XMP.284 was soluble in water and unbuffered saline. […] There was very little product loss, as measured by absorbance at 280 nm, in 0.15 M saline buffered with 10 mM acetate at pH 4, 5 or 6. […]

Substance | minimum inhibitory concentration (MIC), lowest concentration required to reduce the optical density at 590 nm to below 0.1 [1] | Activity of Peptides on Crytococcus Neoformans 13690, IC50 [2] | protection from endotoxemia-associated mortality ([3]; 0.5 mg/kg dose i.v., FIG. 9) | animals protected ([3]; 1 mg/kg dose i.v.) | new HPLC peaks accumulated [4]
H-KSKVGWLIQLFHKK-NH2 [XMP.13] | 12.5 µg/mL |  |  |  | 
H-SKVKWLIQLFHKK-NH2 [XMP.284] |  | 0.11 µg/mL | significant protection | 14 of 15 | less than 0.5%
